Results: patent US7196110B2, “N-substituted tricyclic 3-aminopyrazoles as inhibitors for the treatment of cell proliferative disorders” (Janssen Phamaceutica N.V., priority 2002, dated 2007)
Where two headings read alike, the source gives them in different places.

Molecular target: T1, PDGF-receptor beta enzyme comprising the tyrosine kinase domain (Homo sapiens, UniProt P09619)
T1 construct: from amino acid 545 to 1106 of GenBank Access NO: AAA36427
Test: Inhibition of PDGF-receptor kinase activity (cell-free, PLC1 peptide, 33P Flashplate)
Assay type: biochemical
Conditions: for inhibition at 10 µM / Percent Inhibition @ 10 uM: compound at 10 uM; for inhibition at 10 µM: read-out: Percent Inhibition @ 10 uM
How it was run: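 The IC50 is the inhibitor level halving kinase activity relative to inhibitor-free wells, measured as 33P captured on a streptavidin-bound biotin-PLC1 peptide. The reaction ran 60 min at 30 °C in pH 8 Tris buffer with 1 mM DTT, 5 μM ATP and the 545–1106 kinase-domain enzyme.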

[1] = PDGF-R kinase activity, read-out: IC50
[2] = read-out: IC50 (μM) on PDGF-R kinase activity

T1 sequence (P09619 545-1106): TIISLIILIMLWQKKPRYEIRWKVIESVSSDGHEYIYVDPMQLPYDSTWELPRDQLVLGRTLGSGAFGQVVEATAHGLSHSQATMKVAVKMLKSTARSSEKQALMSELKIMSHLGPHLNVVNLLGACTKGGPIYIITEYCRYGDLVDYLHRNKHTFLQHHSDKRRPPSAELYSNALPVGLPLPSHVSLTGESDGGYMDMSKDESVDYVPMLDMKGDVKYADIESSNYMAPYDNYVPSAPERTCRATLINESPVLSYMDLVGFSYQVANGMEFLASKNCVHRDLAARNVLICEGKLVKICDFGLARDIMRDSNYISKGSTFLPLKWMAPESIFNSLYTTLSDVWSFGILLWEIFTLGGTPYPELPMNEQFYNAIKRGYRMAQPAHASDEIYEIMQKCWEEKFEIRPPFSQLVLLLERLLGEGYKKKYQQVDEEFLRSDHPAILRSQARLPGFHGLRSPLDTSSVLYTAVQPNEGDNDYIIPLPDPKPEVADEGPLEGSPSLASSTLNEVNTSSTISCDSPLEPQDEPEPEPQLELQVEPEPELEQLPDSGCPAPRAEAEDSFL

SMILES	inhibition at 10 µM (PDGF-R kinase activity) [%]	IC50 [1] [µM]	IC50 [2] [µM]	Percent Inhibition @ 10 uM (PDGF-R kinase activity) [%]
COCCOC(=O)n1nc(Nc2cccc(F)c2)c2c1-c1cc(OC)c(OC)cc1C2 [Compound 438, 3-(3-Fluoro-phenylamino)-6,7-dimethoxy-4H-indeno[1,2-c]pyrazole-1-carboxylic acid 2-methoxy-ethyl ester]	77.5	0.992	–	–
O=C1c2ccccc2-c2n[nH]c(Nc3ccccc3)c21 [Compound 35, 3-Phenylamino-2H-indeno[1,2-c]pyrazol-4-one]	88	2.06	–	–
COc1cc2c(cc1OC)-c1c(c(Nc3cccc(F)c3)nn1C(=O)OCCOCc1ccccc1)C2 [Compound 470, 3-(3-Fluoro-phenylamino)-6,7-dimethoxy-4H-indeno[1,2-c]pyrazole-1-carboxylic acid 2-benzyloxy-ethyl ester]	96	0.197	–	–
CCOc1cc2c(cc1OCCCO)-c1n[nH]c(Nc3ccc(F)c(Cl)c3)c1C2 [Compound 368, 3-[3-(3-Chloro-4-fluoro-phenylamino)-6-ethoxy-2,4-dihydro-indeno[1,2-c]pyrazol-7-yloxy]-propan-1-ol]	89.5	0.0629	–	–
COc1cc2c(cc1OC)-c1c(c(Nc3cccc(F)c3)nn1C(=O)c1ccc(Cl)cc1)C2 [Compound 494, (4-Chloro-phenyl)-[3-(3-fluoro-phenylamino)-6,7-dimethoxy-4H-indeno[1,2-c]pyrazol-1-yl]-methanone]	83	1.54	–	–
Brc1cccc(Nc2[nH]nc3c2Cc2c(OCCN4CCCC4)cccc2-3)c1 [Compound 478, (3-Bromo-phenyl)-[5-(2-pyrrolidin-1-yl-ethoxy)-2,4-dihydro-indeno[1,2-c]pyrazol-3-yl]-amine]	93.5	0.162	–	–
COc1cc2c(c3nc(C)oc13)CC1C(Nc3cccc(F)c3)=NN=C21 (stereo not shown) [Compound 605, (3-Fluoro-phenyl)-(4-methoxy-2-methyl-7,9-dihydro-3-oxa-1,6,7-triaza-cyclopenta[b]-as-indacen-8-yl)-amine]	97.5	–	0.0051	–
CC1c2ccccc2-c2n[nH]c(Nc3cccc(C(F)(F)F)c3)c21 (stereo not shown) [Compound 114, (4-Methyl-2,4-dihydro-indeno[1,2-c]pyrazol-3-yl)-(3-trifluoromethyl-phenyl)-amine]	80	1.37	–	–
COCC(=O)OCC(=O)n1nc(Nc2cccc(F)c2)c2c1-c1cc(OC)c(OC)cc1C2 [Compound 473, Methoxy-acetic acid 2-[3-(3-fluoro-phenylamino)-6,7-dimethoxy-4H-indeno[1,2-c]pyrazol-1-yl]-2-oxo-ethyl ester]	98.5	0.00896	–	–
CCOc1cccc(Nc2[nH]nc3c2C(CC)c2cc(OC)c(OC)cc2-3)c1 (single isomer, unassigned) [Compound 556, (3-Ethoxy-phenyl)-(4-ethyl-6,7-dimethoxy-2,4-dihydro-indeno[1,2-c]pyrazol-3-yl)-amine]	–	0.0104	–	98
COc1cc2c(cc1OC)C(C)(C)c1c-2n[nH]c1Nc1cccc(Cl)c1 [Compound 486, (3-Chloro-phenyl)-(6,7-dimethoxy-4,4-dimethyl-2,4-dihydro-indeno[1,2-c]pyrazol-3-yl)-amine]	34.5	15.8	–	–
c1ccc(Nc2[nH]nc3c2CCc2sccc2-3)cc1 [Compound 52, (4,5-Dihydro-2H-6-thia-1,2-diaza-as-indacen-3-yl)-phenyl-amine]	71	2.4	–	–
CCC1c2cc(OC)c(OC)cc2-c2c1c(Nc1cccc(Br)c1)nn2C(=O)OCCOCCOCCO (stereo not shown) [Compound 547, 3-(3-Bromo-phenylamino)-4-ethyl-6,7-dimethoxy-4H-indeno[1,2-c]pyrazole-1-carboxylic acid 2-[2-(2-hydroxy-ethoxy)-ethoxy]-ethyl ester]	68.5	–	–	–
COc1cc2c(cc1OC)[C@@H](C)c1c-2n[nH]c1Nc1cccc(Br)c1 [Compound 553, (4R)-N-(3-bromo-phenyl)-(6,7-dimethoxy-4-methyl-2,4-dihydro-indeno[1,2-c]pyrazol-3-yl)-amine]	99.5	0.0065	–	–
CCOc1cccc(Nc2[nH]nc3c2C(C)c2cc(OC)c(OC)cc2-3)c1 (single isomer, unassigned) [Compound 554, (6,7-Dimethoxy-4-methyl-2,4-dihydro-indeno[1,2-c]pyrazol-3-yl)-(3-ethoxy-phenyl)-amine]	–	0.0208	–	102
COc1cc2c(cc1OC)-c1nn(COC(C)=O)c(Nc3cccc(F)c3)c1C2 [Compound 497, Acetic acid 3-(3-fluoro-phenylamino)-6,7-dimethoxy-4H-indeno[1,2-c]pyrazol-2-ylmethyl ester]	97	0.0777	–	–
COCn1nc2c(c1Nc1cccc(F)c1)Cc1cc(OC)c(OC)cc1-2 [Compound 475, (6,7-Dimethoxy-2-methoxymethyl-2,4-dihydro-indeno[1,2-c]pyrazol-3-yl)-(3-fluoro-phenyl)-amine]	65.5	5.03	–	–
COc1cc2c(cc1OC)-c1n[nH]c(Nc3cc(C(C)(C)C)cc(C(C)(C)C)c3)c1C2 [Compound 279, (3,5-Di-tert-butyl-phenyl)-(6,7-dimethoxy-2,4-dihydro-indeno[1,2-c]pyrazol-3-yl)-amine]	19.5	203	–	–
COc1cc2c(cc1OC)C(C)c1c-2n[nH]c1Nc1ccc(F)c(Cl)c1 (stereo not shown) [Compound 250, (3-Chloro-4-fluoro-phenyl)-(6,7-dimethoxy-4-methyl-2,4-dihydro-indeno[1,2-c]pyrazol-3-yl)-amine]	88	0.223	–	–
COc1cc2c(cc1OC)-c1n[nH]c(Nc3cccc(C(=O)N4CCN(C)CC4)c3)c1C2 [Compound 319, [3-(6,7-Dimethoxy-2,4-dihydro-indeno[1,2-c]pyrazol-3-ylamino)-phenyl]-(4-methyl-piperazin-1-yl)-methanone]	80.5	2.2	–	–
CCC1c2cc(OC)c(OC)cc2-c2n[nH]c(Nc3cccc(Br)c3)c21 (single isomer, unassigned) [Compound 555, *R-(3-Bromo-phenyl)-(6,7-dimethoxy-4-ethyl-2,4-dihydro-indeno[1,2-c]pyrazol-3-yl)-amine]	97.5	0.0209	–	–

Other lines, results leading:

inhibition at 10 µM (PDGF-R kinase activity) [%]	IC50 [1] [µM]	IC50 [2] [µM]	Percent Inhibition @ 10 uM (PDGF-R kinase activity) [%]	SMILES
88	0.829	–	–	COc1ccncc1Nc1[nH]nc2c1Cc1cc(OC)c(OC)cc1-2 [Compound 453, (6,7-Dimethoxy-2,4-dihydro-indeno[1,2-c]pyrazol-3-yl)-(4-methoxy-pyridin-3-yl)-amine]
56.5	0.0267	–	–	COc1ccc(Cl)cc1Nc1[nH]nc2c1Cc1ccccc1-2 [Compound 342, (5-Chloro-2-methoxy-phenyl)-(2,4-dihydro-indeno[1,2-c]pyrazol-3-yl)-amine]
95	0.415	–	–	c1ccc(Nc2[nH]nc3c2Cc2sccc2-3)cc1 [Compound 94, (5,7-Dihydro-1-thia-4,5-diaza-cyclopenta[a]pentalen-6-yl)-phenyl-amine]
96	0.0023	–	–	COc1cc2c(cc1F)Cc1c-2n[nH]c1NCc1ccccc1C [Compound 425, (6-Fluoro-7-methoxy-2,4-dihydro-indeno[1,2-c]pyrazol-3-yl)-(2-methyl-benzyl)-amine]
53	0.545	–	–	COc1ccc(Nc2[nH]nc3c2Cc2ccc(C)cc2-3)cc1 [Compound 183, (4-Methoxy-phenyl)-(7-methyl-2,4-dihydro-indeno[1,2-c]pyrazol-3-yl)-amine]
36	8.4	–	–	COc1ccc(Cl)cc1Nc1[nH]nc2c1Cc1cc(OC)c(OC)cc1-2 [Compound 56, (5-Chloro-2-methoxy-phenyl)-(6,7-dimethoxy-2,4-dihydro-indeno[1,2-c]pyrazol-3-yl)-amine]
92	0.002	–	–	Cc1cccc(Nc2[nH]nc3c2Cc2cc(F)ccc2-3)c1 [Compound 240, (6-Fluoro-2,4-dihydro-indeno[1,2-c]pyrazol-3-yl)-m-tolyl-amine]
96.5	0.103	–	–	CCOc1cccc(Nc2[nH]nc3c2Cc2cc(OCC)c(OCC)cc2-3)c1 [Compound 375, (6,7-Diethoxy-2,4-dihydro-indeno[1,2-c]pyrazol-3-yl)-(3-ethoxy-phenyl)-amine]
56	3.71	–	–	COc1cc2c(cc1OC)-c1n[nH]c(Nc3ccc4c(c3)CCC4)c1C2 [Compound 79, (6,7-Dimethoxy-2,4-dihydro-indeno[1,2-c]pyrazol-3-yl)-indan-5-yl-amine]
71	2.15	–	–	COc1cc2c(cc1OC)-c1n[nH]c(Nc3ccccc3C(C)C)c1C2 [Compound 57, (6,7-Dimethoxy-2,4-dihydro-indeno[1,2-c]pyrazol-3-yl)-(2-isopropyl-phenyl)-amine]
64	–	0.0156	–	CCOc1cc2c(cc1OCC)-c1n[nH]c(Nc3cccc(F)c3)c1C2 [Compound 594, (6,7-Diethoxy-2,4-dihydro-indeno[1,2-c]pyrazol-3-yl)-(3-fluoro-phenyl)-amine]
95	0.205	–	–	COc1cc2c(cc1OCc1ccccc1)Cc1c-2n[nH]c1Nc1cccc(F)c1 [Compound 291, (6-Benzyloxy-7-methoxy-2,4-dihydro-indeno[1,2-c]pyrazol-3-yl)-(3-fluoro-phenyl)-amine]
94.5	0.0635	–	–	CCOc1cccc(Nc2[nH]nc3c2Cc2sccc2-3)c1 [Compound 405, (5,7-Dihydro-1-thia-4,5-diaza-cyclopenta[a]pentalen-6-yl)-(3-ethoxy-phenyl)-amine]
